Numbers after ± are expanded uncertainties.
Experiments:
[1] = 101.33 kPa, Crystal, Thin-film microcalorimeter
[2] = molar heat capacity at constant pressure; conditions: 101.33 kPa, Crystal, Thin-film microcalorimeter

[O-2].[Zn+2] [zinc(II) oxide]
Conditions	molar entropy, [1] [J/K/mol]	molar heat capacity at constant pressure, [2] [J/K/mol]
1 K	2e-05 ± 2e-06	6e-05 ± 5e-06
1.906 K	–	0.0004 ± 0.0001
2 K	0.0001 ± 0.0001	0.0004 ± 0.0001
2.105 K	–	0.0005 ± 0.0001
2.329 K	–	0.0007 ± 0.0001
2.579 K	–	0.0009 ± 0.0001
2.856 K	–	0.0013 ± 0.0001
3 K	0.0005 ± 0.0001	0.0015 ± 0.0001
3.169 K	–	0.0018 ± 0.0001
3.509 K	–	0.0024 ± 0.0001
3.893 K	–	0.0033 ± 0.0002
4 K	0.0012 ± 0.0001	0.0036 ± 0.0002
4.319 K	–	0.0045 ± 0.0002
4.794 K	–	0.0062 ± 0.0003
5 K	0.0023 ± 0.0002	0.007 ± 0.0003
5.322 K	–	0.0085 ± 0.0004
5.907 K	–	0.0115 ± 0.0005
6 K	0.004 ± 0.0002	0.0121 ± 0.0005
6.557 K	–	0.0158 ± 0.0006
7 K	0.0064 ± 0.0004	0.0193 ± 0.0008
7.279 K	–	0.0217 ± 0.0009
8 K	0.0096 ± 0.0006	0.0288 ± 0.0012
8.084 K	–	0.0296 ± 0.0012
8.978 K	–	0.0409 ± 0.0017
9 K	0.0136 ± 0.0008	0.0414 ± 0.0017
9.969 K	–	0.0573 ± 0.0023
10 K	0.0188 ± 0.0006	0.0577 ± 0.0012
11 K	0.0252 ± 0.0008	0.0785 ± 0.0016
11.07 K	–	0.0803 ± 0.0017
12 K	0.0332 ± 0.001	0.1048 ± 0.0022
12.3 K	–	0.1145 ± 0.0024
13 K	0.0428 ± 0.0013	0.1378 ± 0.0029
13.64 K	–	0.1629 ± 0.0034
14 K	0.0545 ± 0.0017	0.1786 ± 0.0037
15 K	0.0684 ± 0.0021	0.2282 ± 0.0047
15.18 K	–	0.237 ± 0.0049
16 K	0.085 ± 0.0026	0.2876 ± 0.0059
16.82 K	–	0.3415 ± 0.007
17 K	0.1045 ± 0.0032	0.3576 ± 0.0073
18 K	0.1272 ± 0.0038	0.439 ± 0.009
18.66 K	–	0.5019 ± 0.01
19 K	0.1533 ± 0.0046	0.5323 ± 0.011
20 K	0.1833 ± 0.0055	0.6378 ± 0.013
20.68 K	–	0.718 ± 0.015
22.98 K	–	1.028 ± 0.021
25 K	0.3964 ± 0.012	1.349 ± 0.027
25.55 K	–	1.448 ± 0.029
28.39 K	–	1.989 ± 0.04
30 K	0.7254 ± 0.022	2.327 ± 0.047
31.54 K	–	2.658 ± 0.053
35 K	1.169 ± 0.035	3.48 ± 0.07
35.05 K	–	3.48 ± 0.07
38.93 K	–	4.451 ± 0.089
40 K	1.714 ± 0.051	4.713 ± 0.094
43.22 K	–	5.533 ± 0.11
45 K	2.341 ± 0.07	5.965 ± 0.12
48.01 K	–	6.726 ± 0.14
50 K	3.035 ± 0.091	7.218 ± 0.14
53.32 K	–	8.042 ± 0.16
55 K	3.781 ± 0.11	8.463 ± 0.17
59.21 K	–	9.463 ± 0.19
60 K	4.569 ± 0.14	9.606 ± 0.19
65 K	5.382 ± 0.16	10.71 ± 0.21
65.75 K	–	10.92 ± 0.22
70 K	6.216 ± 0.19	11.8 ± 0.24
73.03 K	–	12.44 ± 0.25
75 K	7.065 ± 0.21	12.85 ± 0.26
80 K	7.928 ± 0.24	13.87 ± 0.28
81.09 K	–	14.11 ± 0.28
85 K	8.798 ± 0.26	14.86 ± 0.3
90 K	9.675 ± 0.29	15.83 ± 0.32
90.06 K	–	15.91 ± 0.32
95 K	10.56 ± 0.32	16.77 ± 0.34
99.87 K	–	17.65 ± 0.35
100 K	11.44 ± 0.34	17.69 ± 0.35
110 K	13.21 ± 0.4	19.46 ± 0.39
110.46 K	–	19.47 ± 0.39
120 K	14.98 ± 0.45	21.16 ± 0.42
120.49 K	–	21.17 ± 0.42
130 K	16.73 ± 0.5	22.78 ± 0.46
130.48 K	–	22.84 ± 0.46
140 K	18.48 ± 0.55	24.34 ± 0.49
140.63 K	–	24.44 ± 0.49
150 K	20.21 ± 0.61	25.82 ± 0.52
150.79 K	–	25.91 ± 0.52
160 K	21.92 ± 0.66	27.24 ± 0.54
160.85 K	–	27.33 ± 0.55
170 K	23.61 ± 0.71	28.58 ± 0.57
170.76 K	–	28.78 ± 0.58
180 K	25.28 ± 0.76	29.85 ± 0.6
181.03 K	–	30.05 ± 0.6
190 K	26.93 ± 0.81	31.05 ± 0.62
191.32 K	–	31.22 ± 0.62
200 K	28.55 ± 0.86	32.19 ± 0.64
201.42 K	–	32.29 ± 0.65
210 K	30.15 ± 0.9	33.26 ± 0.67
211.59 K	–	33.41 ± 0.67
220 K	31.72 ± 0.95	34.27 ± 0.69
221.8 K	–	34.44 ± 0.69
230 K	33.26 ± 1	35.22 ± 0.7
232 K	–	35.5 ± 0.71
240 K	34.78 ± 1	36.12 ± 0.72
242.17 K	–	36.29 ± 0.73
250 K	36.27 ± 1.1	36.96 ± 0.74
252.15 K	–	37.15 ± 0.74
260 K	37.74 ± 1.1	37.76 ± 0.76
262.28 K	–	37.93 ± 0.76
270 K	39.18 ± 1.2	38.5 ± 0.77
272.28 K	–	38.59 ± 0.77
273.15 K	39.63 ± 1.2	38.73 ± 0.77
280 K	40.59 ± 1.2	39.2 ± 0.78
282.48 K	–	39.3 ± 0.79
290 K	41.98 ± 1.3	39.86 ± 0.8
292.54 K	–	39.86 ± 0.8
298.15 K	43.09 ± 1.3	40.36 ± 0.81
300 K	43.34 ± 1.3	40.48 ± 0.81
302.58 K	–	40.86 ± 0.82

Source: the NIST ThermoML archive (doi:10.1016/j.jct.2013.01.004)
